Structures can show the parent of a compound that is named as a salt.
How the values were obtained:
[1] = test system: sorbitol accumulation in the sciatic nerve of streptozotocinized (i.e., diabetic) rats; experiment: reduction/inhibition of sorbitol accumulation in the sciatic nerve of acutely streptozotocinized (diabetic) rats; assay type: in vivo; conditions: for Percent Inhibition (%): oral, 4, 8 and 24 hours after streptozotocin, sorbitol in sciatic nerve measured 27 hours after induction of diabetes, vs. untreated animal
Description: The activity of the compounds of the present invention, as agents for the control of chronic diabetic complications, is determined by their ability to successfully pass one or more of the following standard biological and/or pharmacological tests, viz., (1) measuring their ability to reduce or inhibit sorbitol accumulation in the sciatic nerve of acutely streptozotocinized (i.e., diabetic) rats; (2) measuring their ability to reverse already-elevated sorbitol levels in the sciatic nerve and lens of chronic streptozotocin-induced diabetic rats; (3) measuring their ability to prevent or inhibit galactitol formation in the lens of acutely galactosemic rats, and (4) measuring their ability to delay cataract formation and reduce the severity of lens opacities in chronic galactosemic rats.
The following spiro-imide compounds of Preparation C and Examples 1-5, respectively, were tested for their ability to reduce or inhibit sorbitol accumulation in the sciatic nerve of streptozotocinized (i.e., diabetic) rats essentially by the procedure described in U.S. Pat. No. 3,821,383. In the present study, the amount of sorbitol accumulation in the sciatic nerves was measured 27 hours after induction of diabetes. The compounds were administered orally at the dose levels indicated 4, 8 and 24 hours following the administration of streptozotocin. The results obtained in this manner are presented below in terms of percent inhibition (%) afforded by the test compound as compared to the case where no compound was administered (i.e., the untreated animal where sorbitol levels normally rise from approximately […]. tissue to as high as […]. tissue in the 27-hour test period): […]

[2] = toxic side effects in diabetic rats on oral administration; assay type: in vivo; conditions: dose level as low as 2.5 mg./kg.
Text: As previously indicated, the spiro-imide compounds of this invention reduce lens sorbitol levels in diabetic subjects. […] The other compounds of this invention also cause similar results. Furthermore, the herein described compounds can be administered by either the oral or parenteral routes of administration without causing any significant untoward pharmacological side reactions in the subjects to whom they are so administered. These compounds are ordinarily administered in dosages ranging from about 0.25 mg. to about 25 mg. per kg. of body weight per day, although variations will necessarily occur depending upon the actual condition of the subject being treated and the particular route of administration chosen.

water solubility of salt = assay type: physicochemical; conditions: sodium salt, amorphous powder, freeze-dried

In the case of `O=C1CC2(CCc3ccccc32)C(=O)N1` (stereo not drawn) [Product of Ex. 1, 2,3-dihydro-spiro-[1H-indene-1,3'-pyrrolidine]-2',5'-dione], the “Percent Inhibition (%)” value ([1]; 2.5 mg./kg.) is reported as 28%, the “inhibit the formation of sorbitol levels in the sciatic nerve of diabetic rats” value ([1]; oral, dose level as low as 2.5 mg./kg., result in words) is reported as “to a significant degree” and the “substantial signs of toxic side effects” value [2] is reported as “without showing any substantial signs of toxic side effects”.

For `O=C1CC2(CCOc3ccc(Cl)cc32)C(=O)N1` (stereo not drawn) [Product of Ex. 2, 6-chloro-2,3-dihydro-spiro-[4H-1-benzopyran-4,3'-pyrrolidine]-2',5'-dione], the “Percent Inhibition (%)” value ([1]; 5.0 mg./kg.) was 13%.

With `O=C1CC2(Cc3ccccc3C2)C(=O)N1` [Product of Ex. 3, 2,3-dihydro-spiro-[1H-indene-2,3'-pyrrolidine]-2',5'-dione] the “Percent Inhibition (%)” value ([1]; 25 mg./kg.) was 33%.

For `O=C1CC2(CCCc3sccc32)C(=O)N1` (stereo not drawn) [Product of Ex. 4, 6,7-dihydro-spiro-[5H-benzo(b)thiophene-4,3'-pyrrolidine]-2',5'-dione], the “Percent Inhibition (%)” value ([1]; 25 mg./kg.) was 51%.

With `O=C1CCC2(CCCc3ccccc32)C(=O)N1` (stereo not drawn) [Product of Ex. 5, 3,4-dihydro-spiro-[2H-naphthalene-1,3'-piperidine]-2',6'-dione] the “Percent Inhibition (%)” value ([1]; 25 mg./kg.) was 23%.

For `O=C1CC2(CCCc3ccccc32)C(=O)N1` (stereo not drawn) [Product of Prep. C, 3,4-dihydro-spiro-[2H-naphthalene-1,3'-pyrrolidine]-2',5'-dione], the “Percent Inhibition (%)” value ([1]; 5.0 mg./kg.) was 46%.

For `O=C1CC2(CCc3ccccc32)C(=O)N1` (stereo not drawn) [sodium salt of 3,4-dihydro-spiro-[1H-indene-1,3'-pyrrolidino]-2',5'-dione], the solubility in water (water solubility of salt) was “freely-soluble in water”.
